The values below come from article PMC12119672, “Development and evaluation of [^11C]DPA-813 and [^18F]DPA-814: novel TSPO PET tracers insensitive to human single nucleotide polymorphism rs6971” (European Journal of Nuclear Medicine and Molecular Imaging, 2025).

Several values for one entry are separate records, joined by “and”; a condition that tells them apart may be missing. Equal entries are not always repeated. Marks after values point to notes of the source that are not given here.

One series addresses T1, WT human TSPO (Homo sapiens, UniProt P30536).
T1 construct: expressed in transfected cells
Put plainly: Competition radioligand binding vs [3H]PK 11195, membranes of transfected HEK-293T cells (WT TSPO). The following applies: vs [3H]PK 11195 (10 nM), HEK-293T membranes, mean ± SEM; read-out: Ki WT hTSPO. How it is done:
(§1) Binding affinities (Ki) to wild-type (WT) and A147T human TSPO were assessed using a previously published method. HEK-293T cells were stably transfected with WT and A147T TSPO. Membranes were isolated from each cell line using an Ultra-Turrax hand-held homogeniser. These cells have been previously validated as an in vitro model for low- and high-affinity TSPO binding. […] Non-specific binding was determined using a saturating concentration (1 µM) of non-tritiated PK 11195. This non-specific binding contributed less than 10% of total binding. Reactions were halted by filtering through a 96-well glass-fibre filter plate (Millipore), followed by eight washes with ice-cold 50 mM Tris HCl. Microscint 0 was added to the plate and resultant radioactivity-related photons were collected by a Microbeta 2450 (PerkinElmer). Ki values were fit to a competition binding curve fit on non-specific binding-corrected data using GraphPad Prism 10.0 (GraphPad). Results are presented as mean ± standard error of the mean (SEM) from at least three independent experiments. Binding affinities (Ki) to rat TSPO were measured in duplicate by Eurofins Panlabs Discovery Services (assay #226700) (Supplementary Fig. 12). Single-dose (10 µM) off-target in vitro screening was performed in duplicate by Eurofins Panlabs Discovery Services (Supplementary Table 5).
(§2) In vitro binding affinities (Ki) for human TSPO were initially assessed using a competition radioligand assay against [^3H]PK 11195 in our well-characterised assay using membranes isolated from transfected HEK-293T cells overexpressing either WT or A147T TSPO [32]. This structure-activity relationship study will be reported in a separate publication. […] Data for DPA-713 and DPA-714 are included for comparison.

For series [1] the following is noted: distribution coefficient; cited from earlier work.
The next series concerns the target T2, A147T human TSPO (Homo sapiens, UniProt P30536).
T2 construct: expressed in transfected cells
In words: Competition radioligand binding vs [3H]PK 11195, membranes of transfected HEK-293T cells (A147T TSPO). The following applies: vs [3H]PK 11195 (10 nM), HEK-293T membranes, mean ± SEM; read-out: Ki A147T hTSPO. As to the method:
as §1, §2

Series [2] relates to EAE rat model (spinal cord). In words: PET imaging in the EAE rat model. In kind it is in vivo.
Series [3] is described as follows: Ex vivo biodistribution in wild-type rats. The following applies: i.v. Set-up: species or system rat. How it is done: Wistar/RccHan (WIST) rats from Inotiv, the Netherlands, received intravenous injections via a tail vein catheter of either [^11C]DPA-813 (30–50 MBq) or [^18F]DPA-814 (20–30 MBq). The rats were euthanized at 5, 15, and 45 min post-injection (n = 4 per time point). Blood, heart, lungs, liver, spleen, kidney, urine, bone, brain, duodenum, small intestine, skin, and muscle were collected, weighed, and their radioactivity measured using a Wizard Gamma counter 1470 or 2480 (Wallac/PerkinElmer, Waltham, MA, USA). Entire organs were collected, except for larger organs like the liver and lungs, where only a portion was dissected. The radioactivity uptake in each organ was expressed as the percentage of the injected dose per gram of tissue (%ID/g).

A further series concerns the target T3, rat TSPO (Rattus norvegicus, UniProt P16257).
T3 construct: Heart of male Wistar derived rats weighing 175 ± 25 g are used to prepare peripheral benzodiazepine membrane receptors [TSPO]; tissue Eurofins Panlabs Discovery Services assay #226700; host or cells: rat heart (male Wistar derived)
In words: Competitive binding to rat TSPO vs [3H]PK 11195 (Eurofins assay #226700, rat heart membranes). The following applies: vs DPA-713 / DPA-714. As to the method:
as §1
Supplementary Figure 12 Dose-response curves and binding affinities of DPA-813 and DPA-814 showing competitive binding to rat TSPO vs [^3H]PK 11195. Method from Eurofins: Heart of male Wistar derived rats weighing 175 ± 25 g are used to prepare peripheral benzodiazepine membrane receptors [TSPO] in modified Tris-HCl buffer pH 7.5. A 0.25 mg aliquot is incubated with 0.3 nM [^3H]PK 11195 for 15 minutes at 25 °C. Non-specific binding is estimated in the presence of 100 μM Dipyridamole. Membranes are filtered and washed, the filters are then counted to determine [^3H]PK 11195 specifically bound.

The next series deals with TSPO in human MS tissues. In words: Autoradiography on genotyped human MS brain tissue (HAB, MAB, LAB). It counts as binding. From the text:
Brain tissues from MS patients (n = 7) were used in this study and were obtained from the MS centre of the Amsterdam University Medical Centers (AUMC). For some patient material, several brain tissues were available. The MS centre received permission from the Ethical Committee of the AUMC (Amsterdam, The Netherlands) to perform autopsies for tissue use and access to medical records for research purposes. All patients and controls, or their next of kin, had given informed consent for autopsy and use of brain tissue for research purposes.
TSPO rs6971 SNP was determined with a Taqman assay (C_2512465_20, ThermoFisher Scientific, The Netherlands). DNA was isolated from human MS brain tissue cryosections using a QIAmp mini kit from Qiagen according to the manufacturer’s recommendation. The concentration of the isolated DNA was determined on a nanodrop (NanoVue Plus, Biochrom). DNA concentration ranged from 45 to 246 µg/mL. QPCR was performed on a QuantStudio (Applied Biosystems, The Netherlands). Synthetic DNA (300 bp) for the two TSPO SNP alleles, rs6971-A, and rs6971-G, was used as a control for the Taqman assay. DNA samples were diluted 1/100 in milliQ water, and 4.5 µL was used for the QPCR. Control DNA sequences were reconstituted in 10 ng/mL in milliQ water. The final QPCR solution contained 5 µL TaqPath proAmp master mix (ThermoFisher Scientific, The Netherlands), 0.5 µL Taqman SNP, and 4.5 µL DNA. Results of the Taqman assay are summarised in Supplementary Tables 4 and Supplementary Fig. 2.
Human MS tissue cryosections (20 μm) were mounted on glass slides, air-dried, and stored at − 80 °C until needed. Prior to use, the sections were washed three times in PBS for 5 min each, then dried under an airflow. […] For blocking experiments, tissue sections were co-incubated with PK 11195 (10 µM) and the tracer. After incubation, sections were washed for 90 s three times each in ice-cold PBS and then dipped in deionized water twice. The sections were air-dried and exposed to a phosphor screen BAS-IP SR 2025 (General Electric, Eindhoven, The Netherlands). Phosphor screens were subsequently imaged using a Typhoon FLA 7000 imager (General Electric, Eindhoven, The Netherlands), and signal intensity was quantified using ImageLab software (BioRad, Lunteren, The Netherlands).

Series [4] is described as follows: Ex vivo metabolite analysis (plasma and brain) in wild-type rats. Set-up: species or system rat. Conditions: i.v. As to the method:
Metabolite analysis was conducted following the method outlined in a previous study. Wistar/RccHan (WIST) rats (Inotiv, the Netherlands) received intravenous injections of either [^11C]DPA-813 (30–50 MBq) or [^18F]DPA-814 (20–30 MBq). Rats were euthanized at 5, 15, and 45 min post-injection (n = 4 per time point). Plasma was separated from blood then processed through a C18 Sep-Pak (Waters, Milford, MA, USA). After washing with 3 mL of water to isolate the polar fraction, the non-polar fraction was eluted using 2 mL of methanol and 1 mL of water and subsequently analyzed by HPLC. The brain tissue was collected and homogenized in a mixture of MeCN and H2O (50/50, 4 mL) before centrifugation (5 min, 4000 rpm, 20 °C, Hettich Universal 32). The obtained supernatant was separated from the precipitate and analyzed via HPLC. Analytical HPLC was performed using a Dionex UltiMate 3000 HPLC system equipped with Chromeleon software (version 6.8), utilizing a Gemini C18 5-µm (10 × 250 mm) column (Phenomenex, Torrance, CA, USA). All fractions were assessed for radioactivity using a Wizard Gamma counter 1470 or 2480 (Wallac/PerkinElmer, Waltham, MA, USA).

T1 sequence (P30536 whole entry T147A): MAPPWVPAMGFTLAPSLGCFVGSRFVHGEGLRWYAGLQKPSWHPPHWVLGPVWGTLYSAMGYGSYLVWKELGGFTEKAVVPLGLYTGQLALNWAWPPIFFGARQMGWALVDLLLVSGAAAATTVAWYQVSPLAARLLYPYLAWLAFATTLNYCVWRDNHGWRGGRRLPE
T2 sequence (P30536 whole entry, stated change not applied): as the sequence (P30536 whole entry T147A) above, with A147T counted along it

For the compound `CCN(CC)C(=O)Cc1c(-c2ccc(OCCF)cc2)nn2c(C)cc(C)nc12` [DPA-714, reference compound], the Ki on WT human TSPO came to 20.9 ± 5 nM; on A147T human TSPO, 260 ± 93.6 nM. Moreover, in series [1], the logD7.4 is 2.4 ^b.

For the compound `Cc1cc(C)n2nc(-c3ccc(O[11CH3])cc3)c(CC(=O)N(C)c3ccccc3)c2n1` [[^11C]DPA-813], in series [2] ([11C]DPA-813 vs [18F]DPA-814, [11C]DPA-713 vs [18F]DPA-714), the “higher difference EAE vs control compared with the fluorinated compound” value turned out to be 3 folds. Besides, the “higher uptake (AUC of time activity curve) in the spinal cord of EAE rats compared to CFA control” value in series [2] (dynamic PET 60 min, peak of clinical symptoms) is reported as 64%. Moreover, in series [3] (5 min post-injection), the “Biodistribution, Blood” value is listed as 0.31 ± 0.1 %ID/g; the “Biodistribution, Bone” value came to 0.28±0.1 %ID/g; the “Biodistribution, Brain” value came out at 0.41 ± 0.1 %ID/g; the “Biodistribution, Duodenum” value amounted to 1.44±0.2 %ID/g. For the same compound, in series [3] (5 min post-injection), the “Biodistribution, Heart” value was 3.70±0.5 %ID/g; the “Biodistribution, Kidney” value is listed as 3.80±0.5 %ID/g; the “Biodistribution, Liver” value was found to be 1.42±0.4 %ID/g; the “Biodistribution, Lungs” value came to 29.84±3. %ID/g. In series [3] (5 min post-injection), the “Biodistribution, Skin” value is reported as 0.09±0.1 %ID/g; the “Biodistribution, Small intestine” value is on record as 1.04±0.4 %ID/g; the “Biodistribution, Tail” value worked out at 1.30±0.6 %ID/g; the “Biodistribution, Urine” value turned out to be 0.03±0.0 %ID/g. Also, in series [3] (5 min post-injection), the “Biodistribution, muscle” value came to 0.07±0.0 %ID/g and the “Biodistribution, spleen” value came to 4.62±0.6 %ID/g. For the same compound, in series [3] (15 min post-injection), the “Biodistribution, Blood” value worked out at 0.34±0.1 %ID/g; the “Biodistribution, Bone” value is on record as 0.35±0.1 %ID/g; the “Biodistribution, Brain” value came to 0.39±0.0 %ID/g; the “Biodistribution, Duodenum” value was 1.37±0.1 %ID/g. In series [3] (15 min post-injection), the “Biodistribution, Heart” value is listed as 4.57±0.2 %ID/g; the “Biodistribution, Kidney” value is listed as 4.31±0.5 %ID/g; the “Biodistribution, Liver” value came out at 1.69 ± 0.2 %ID/g; the “Biodistribution, Lungs” value came to 24.03±7. %ID/g. In addition, in series [3] (15 min post-injection), the “Biodistribution, Skin” value was found to be 0.10±0.0 %ID/g; the “Biodistribution, Small intestine” value is 0.77±0.3 %ID/g; the “Biodistribution, Tail” value stood at 1.18±0.1 %ID/g; the “Biodistribution, Urine” value worked out at 0.02±0.0 %ID/g. For the same compound, in series [3] (15 min post-injection), the “Biodistribution, muscle” value turned out to be 0.10±0.0 %ID/g and the “Biodistribution, spleen” value is 5.88±1.8 %ID/g. In series [3] (45 min post-injection), the “Biodistribution, Blood” value came to 0.27 ± 0.01 %ID/g; the “Biodistribution, Bone” value worked out at 0.26±0.1 %ID/g; the “Biodistribution, Brain” value came out at 0.34 ± 0.1 %ID/g; the “Biodistribution, Duodenum” value stood at 1.51±0.1 %ID/g. In series [3] (45 min post-injection), the “Biodistribution, Heart” value stood at 4.28±0.3 %ID/g; the “Biodistribution, Kidney” value came to 4.20±0.6 %ID/g; the “Biodistribution, Liver” value was 1.68±0.3 %ID/g; the “Biodistribution, Lungs” value turned out to be 16.13±3.5 %ID/g. Also, in series [3] (45 min post-injection), the “Biodistribution, Skin” value was found to be 0.12±0.04 %ID/g; the “Biodistribution, Small intestine” value is reported as 1.18±0.2 %ID/g; the “Biodistribution, Tail” value stood at 1.33±0.7 %ID/g; the “Biodistribution, Urine” value came out at 0.23±0.3 %ID/g. Moreover, in series [3] (45 min post-injection), the “Biodistribution, muscle” value stood at 0.12±0.03 %ID/g and the “Biodistribution, spleen” value was found to be 6.66±1.2 %ID/g. At rat TSPO, the “higher affinity to rat TSPO compared to the parent compound” value is given as 24 fold. In the series on TSPO in human MS tissues (HAB human MS tissue), the “ratio of the binding quantification [11C]DPA-813/[11C]DPA-713” value (“ratio of the binding quantification” below) was determined as 1 ± 0.2. The “ratio of the binding quantification” value with TSPO in human MS tissues (LAB human MS tissue) amounted to 3. Also, the “ratio of the binding quantification” value in the series with TSPO in human MS tissues (MAB human MS tissue) is 1.6 ± 0.1. For the same compound, in series [4] (5 min post-injection), the “Brain, Parent (intact tracer)” value was 99.7 ± 0.1% and the “Plasma, Parent (Intact tracer)” value amounted to 87.9 ± 2.4%. Also, in series [4] (15 min post-injection), the “Brain, Parent (intact tracer)” value is recorded as 99.6 ± 0.3% and the “Plasma, Parent (Intact tracer)” value was determined as 85.5 ± 3.2%. Moreover, in series [4] (45 min post-injection), the “Brain, Parent (intact tracer)” value amounted to 98.9 ± 0.9%; the “Plasma, Parent (Intact tracer)” value is 67.2 ± 2.9% and 67%.

Take `CCN(CC)C(=O)Cc1c(-c2ccc(OC)cc2)nn2c(C)cc(C)nc12` [DPA-713]: in series [1], the logD7.4 was 2.4 ^b.
